Reference: patent US20170114128A1, “USE OF TGF-BETA ANTAGONISTS OF TREAT TYPE-2 DIABETES” (ALBERT EINSTEIN COLLEGE OF MEDICINE, INC., priority 2014, published 2017)

How the values were obtained:
[1] = TGF-β1 concentrations in CSF and blood after third-ventricle injection; format: in vivo, mice
Method: Brain TGF-β excess impairs glucose tolerance: To study the metabolic effects of brain TGF-β excess, a pharmacological approach was first used by which TGF-β was delivered into the hypothalamic third ventricle of normal C57BL/6 mice via pre-implanted cannula. To optimize the dosage, different doses of TGF-β1 (0, 0.5, 1.0, and 4.0 ng) were injected, and TGF-β1 concentrations measured in the CSF at various time points post-injection. […] Based on this condition, overnight-fasted mice were given intra-third ventricle injections of TGF-β1 in these doses, one injection at night after food was removed, and the second injection in the following morning at 4 hours prior to glucose tolerance test (GTT). […] In sum, a pharmacological induction of brain TGF-β excess can acutely cause pre-diabetic changes including glucose intolerance and insulin resistance.
Protein, mRNA and peptide analyses. Hypothalami were isolated as previously described (14). Tissue lysis, SDS/PAGE and Western blotting were performed as previously described (19). Primary antibodies in Western blots included anti-IκBα (Santa Cruz, #SC847, 1:500), anti-p-TAK1 (Cell Signaling, #4531, 1:1000), anti-p-IκBα (Cell Signaling, #2859, 1:1000), anti-RelA (Cell Signaling, #3039, 1:1000), anti-p-RelA (Cell Signaling, #4764, 1:1000), and anti-β-actin (Cell Signaling, #4967S, 1:1000), and secondary antibodies were HRP-conjugated anti-rabbit or goat antibody (Pierce, 1:2000). Quantification of Western blots was processed with Image J. Total RNA was extracted from hypothalamic tissue using TRIzol® (Invitrogen), and cDNA was synthesized using M-MLV RT System (Promega). Using SYBR® Green PCR Master Mix (Applied Biosystems), expression levels of target genes were analyzed via PCR amplification and quantification. GAPDH or TBP mRNA levels were used for normalization. […] Serum and CSF TGF-β content were measured using TGF-β ELISA kit (R&D Systems).

Myd88 knockout mice = experiment: Third-ventricle TGF-β1 delivery in Myd88 knockout mice; format: in vivo; conditions: hypothalamic third ventricle; data not shown
Text: To further assess this point, it was asked if the effects of brain TGF-β excess could be impaired by ablation of a signaling component, such as toll-like receptor-4 (TLR4) or myeloid differentiation primary response gene 88 (MyD88), because they employ kinase signaling to induce IκBα phosphorylation and thus NF-κB activation. Using a genetic model, T1r4 knockout (T1r4−/−) mice, TGF-β1 or vehicle was delivered into the hypothalamic third ventricle of these mice and littermate WT mice via pre-implanted cannula. Vehicle-injected T1r4−/− mice and WT mice were both normal in glucose and insulin tolerance tests (FIG. 4a, b). […] Altogether, brain TGF-β excess may use a mechanism that directly targets IκBα rather than upstream kinase signaling to activate hypothalamic NF-κB.

[2] = tested on: hypothalamic NF-κB signaling components; experiment: Western blots of hypothalamic NF-κB signaling components after third-ventricle TGF-β1; format: in vivo, mice
Method: Induction of hypothalamic NF-κB activation by TGF-β: TGF-β is often appreciated for anti-inflammatory feature in immune response, but, depending on physiological context and particularly in pathological conditions, TGF-β can be inflammatory (28)—although it is atypical and many details are still unclear. Here, because NF-κB has been known to atypically mediate hypothalamic inflammation in obesity or aging (12-14,18-20,23-27), it was analyzed if NF-κB signaling components were different in the hypothalamus of mice with third-ventricle injection of TGF-β vs. vehicle. […] First, since IκBα loss is the specific step that immediately liberates cytoplasmic NF-κB for nuclear translocation, and NF-κB subunit RelA in the nucleus undergoes phosphorylation, RelA phosphorylation was measured in mice injected with TGF-β1 or vehicle. […] Second, it was evaluated if TGF-β1-triggered NF-κB activation could be involved in HFD-induced hypothalamic inflammation. By employing heterogeneous Tgfb1 knockout (Tgfb1 +/−) mice, whether haplodeficiency of Tgfb1 in this mouse model could affect the induction of hypothalamic inflammation by HFD feeding was examined To do so, adult Tgfb1+/− mice and littermate WT controls were subjected to HFD feeding for three weeks, and chow feeding was included to provide as dietary control. Indeed, hypothalamic Tgfb1 mRNA in chow-fed Tgfb1+/− mice dropped by ˜50% compared to chow-fed WT (FIG. 4b), which was consistent with the literature (35). […] Using these hypothalamic samples, we examined mRNA levels of a list of inflammation-related molecules including TNFα, IL-6, SOCS3, TLR4, PTP1B, PKCλ and PKCι. […] Therefore, brain TGF-β excess plays a role in inducing diet-induced hypothalamic inflammation.
Thus, while kinase (e.g., IKK)-induced IκBα phosphorylation is a crucial, rapid signaling reaction in classical inflammation, this process is not primarily critical in TGF-β1-induced hypothalamic inflammation.
To further assess this point, it was asked if the effects of brain TGF-β excess could be impaired by ablation of a signaling component, such as toll-like receptor-4 (TLR4) or myeloid differentiation primary response gene 88 (MyD88), because they employ kinase signaling to induce IκBα phosphorylation and thus NF-κB activation. […]
Protein, mRNA and peptide analyses. […] Quantification of Western blots was processed with Image J. Total RNA was extracted from hypothalamic tissue using TRIzol® (Invitrogen), and cDNA was synthesized using M-MLV RT System (Promega). Using SYBR® Green PCR Master Mix (Applied Biosystems), expression levels of target genes were analyzed via PCR amplification and quantification. […] Serum and CSF TGF-β content were measured using TGF-β ELISA kit (R&D Systems).

[3] = third-ventricle injection vs vehicle

TGF-β1: transforming growth factor-β1 (Sigma), cytokine dissolved in artificial cerebrospinal fluid for third-ventricle injection
CSF TGF-β1 concentration relative to basal concentration ([1]; 60 min post-injection): roughly 2 fold | blood TGF-β1 concentration ([1]; doses 0.5, 1.0, 4.0 ng in third ventricle): None of these doses significantly increased | time of peak increase of CSF TGF-β1 concentration ([1]; post-injection, third ventricle, 0.5-4.0 ng, dose-dependent): 15 min | effect of lack of Myd88 on glucose or insulin intolerance following TGF-β1 delivery (Myd88 knockout mice): did not lead to a significant reduction | hypothalamic TAK1 phosphorylation ([2]; mouse, in vivo): did not lead to hypothalamic TAK1 phosphorylation | phosphorylated levels of IκBα ([2]; normalized by IκBα protein levels): did not change | hypothalamic IκBα protein levels [2, 3]: significant reduction | hypothalamic RelA phosphorylation [2, 3]: significantly increased
